Source: patent US20160168224A1, “PROCESS FOR PREPARING AMPHIPHILIC PEPTIDE DERIVATIVES” (UNIVERSIDADE FEDERAL DE MINAS GERAIS - UFMG, priority 2013, published 2016)
Where two headings read alike, the source gives them in different places. No end group written: not given here.

Columns and labels:
[1] = system: spontaneously hypertensive rats (SP-SHR); assay: Blood pressure after topical application in spontaneously hypertensive rats; assay type: in vivo, rat
Description: To evaluate the ability of the amphiphilic peptide derivatives to exert systemic biological action after topical application, spontaneously hypertensive rats (SP-SHR) and Ang-(1-7) derivatives, as prepared in Example 1 were used.
SP-SHR rats (4-5 months-old with about 270 g body weight) were instrumented for acute blood pressure measurements using tribromoethanol anesthesia. Just after the arterial catheter implantation, the interscapular region was shaved for topical application of the formulation. Blood pressure (BP) was recorded 24 h after surgery (base line BP=173.0±6.2). BP was recorded in unanesthesized animals under resting conditions for 1 h. After that, a solution of Ang-(1-7) derivatives was applied topically (20 μl at 1 mg/ml) and BP was continuously recorded for 6 h.

[2] = human, in vivo; cited from earlier work
dogs = conditions: subcutaneous, 10 mg/(kg day) for 28 days; cited from earlier work
rats = conditions: subcutaneous, 10 mg/(kg day) for 28 days; cited from earlier work
[3] = in vivo; cited from earlier work
[4] = topical application 20 μl at 1 mg/ml

Substance	duration of BP decrease [1, 4]	start of BP decrease after application [1, 4]	decrease of BP ([1]; topical application 20 μl at 1 mg/ml, BP recorded for 6 h)	plasma half-life [2]	detectable toxicities (dogs)	change in BP ([1]; topical application)	detectable toxicities (rats)	plasma half-life [3]
Ang-(1-7) ester derivatives: Product of Example 1: Ang-(1-7) esterified with 1-octanol, mainly diester at C-terminal and Asp carboxyl groups, plus monoesters (DRVYIHP; not fully specified (residue 1, C-terminus); also: mixture: mainly diester at C-terminal and Asp carboxyl groups, plus monoesters; UniProt P01019 25-31, looked up)	up to 6 h	90 min	up to 25 mmHg					
Asp^1-Arg^2-Val^3-Tyr^4-Ile^5-His^6-Pro^7 [Ang-(1-7)]				~30 min	did not lead to any detectable toxicities	did not cause significant change in BP	did not lead to any detectable toxicities	about 10 min
